test: gradient 5% acetonitrile 3 min, to 50% in 2 min, to 85% in 15 min, held 3 min, 100 µL/min; settings: column: Zorbax Extend-C18 2.1 x 50 mm; eluents: water / acetonitrile, 0.1% formic acid
Outline: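 Mixtures of ~100 pure standards were chromatographed on a Zorbax Extend-C18 column (2.1 × 50 mm, 1.8 μm) at 100 μL/min using water and acetonitrile, each with 0.1% formic acid. Detection used a quadrupole time-of-flight mass spectrometer in positive and negative ionization mode, and data collection spanned 3 months. Retention time was obtained from adduct peaks picked computationally and each checked manually.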

RP-LC retention time [s] | Compound
974 | CCN1C(=O)C2CCCCN2c2ccc(C(=O)N3CCN(c4ccccc4)CC3)cc21 (stereo not given)
656 | Cc1c(C(=O)NC2CCS(=O)(=O)C2)nnn1-c1ccccc1F (stereo not given)
999 | Cc1nc(-c2cn(C(C)C)c3ncccc23)sc1C(=O)N1CCC(C)CC1
617 | O=C(CCc1nnn2c1CN(C(=O)c1ccc(F)cc1)CC2)NC1CC1
894 | Cc1nc(-c2csc(S(=O)(=O)N3CCCC(C(=O)Nc4ccc5c(c4)OCO5)C3)c2)no1 (stereo not given)
766 | CCOc1ccc(NC(=O)c2oc3ccc(C)cc3c2C)c2cccnc12
645 | CCOc1ccc(S(=O)(=O)N2CC=C(c3cn(C(C)C)c4ncccc34)CC2)cc1
1080 | Cc1oc(C(C)C)nc1C(=O)NCc1cccc(C(F)(F)F)c1
778 | Cc1noc(/C=C/c2ccc(S(=O)(=O)N3CCOCC3)s2)c1NC(=O)C1CC1
685 | CCC(=O)N1CCc2cc(C(=O)NC(C)C)ccc21
585 | CC(C)C(=O)Nc1ccc2nc(N3CCN(Cc4ccccc4F)CC3)cc(C(=O)O)c2c1
771 | O=C(Nc1nnc(C2CC(=O)N(c3ccc(F)cc3)C2)o1)c1ccc(Cl)cc1 (stereo not given)
768 | COC(=O)c1cnn(-c2ccc(C(=O)N3CCc4ccccc43)cc2)c1N
824 | C=CCn1c(C)c(CC(=O)NC(C)CC)c(=O)n2nc(-c3ccc(C)cc3)nc12 (stereo not given)
733 | COc1cccc(CNC(=O)N2CCCC2c2c(C)noc2C)c1 (stereo not given)
1110 | O=C(CSc1cc(N2CCN(c3ccccc3F)CC2)ncn1)NCc1ccccc1
560 | CCOC(=O)N1CCN(C(=O)CSc2nncn2C)CC1
682 | COc1ccc(OC)c(NC(=O)CN2C(=O)COc3ccc(C(=O)N4CCCC4)cc32)c1
920 | CC(C)N1C(=O)c2cccnc2Sc2cc(NC(=O)C3CCCCC3)ccc21
588 | Cc1ccc(CN2CCN(CC(=O)Nc3ccncc3)C(=O)C2=O)cc1
694 | CCn1nccc1C(=O)N1CCN(c2cc(-c3ccccc3)[nH]n2)CC1
711 | Cc1csc(-c2ccc(N3CCN(C(=O)c4ccco4)CC3)nc2)n1

RP-LC retention time [s] | Compound
601 | CCNc1ncnc2sc3c(c12)CCN(C(=O)COC)C3
783 | O=C(c1ccc(Br)cc1)N1CCC(n2c(-c3ccoc3)nc3cccnc32)C1 (stereo not given)
577 | CN(CCNC(=O)C1CCCN(c2cnc3nccnc3c2)C1)C1CCCCC1 (stereo not given)
999 | Cc1cccc(S(=O)(=O)N2CCc3c(c(-c4nnc(-c5ccccc5F)o4)nn3C)C2)c1
713 | Cc1cccc(S(=O)(=O)N2CCC(n3cnnc3C3CC3)CC2)c1
660 | N#Cc1cccc(NC(=O)N2CCC(c3cc(N)on3)CC2)c1
957 | Cc1ccc(S(=O)(=O)n2nc(-c3cccc(C)c3)nc2N)cc1
1270 | CCc1nc2cc(-c3noc(-c4ccc(C)cc4)n3)ccc2o1
702 | Cc1nc([N+](=O)[O-])c(Sc2nc3ccccc3[nH]2)n1Cc1ccccc1
892 | CCCSc1nnc(NC(=O)CCc2ccc(C)o2)s1
625 | CC(C)n1cnnc1CC1CCN(C(=O)Nc2ccc3c(c2)OCCO3)CC1
765 | O=C(Nc1cnc(N2CCCC2)nc1)c1ccc(Cl)cc1
567 | Cc1nc2cc3c(cc2n1CC(=O)NCC1CCCO1)OCCO3 (stereo not given)
581 | O=C(CCc1nc2ccccc2[nH]1)N1CCC(c2noc(-c3ccccn3)n2)C1 (stereo not given)
766 | CC(NC(=O)c1ccccc1)c1nc(-c2ccc(NS(C)(=O)=O)cc2)no1 (stereo not given)
1120 | CCOc1ccc(CC(=O)N2CCCC2c2nc(-c3cccc(C)c3)no2)cc1 (stereo not given)
621 | Cc1cccc(CN2CCCn3nc(C(=O)NCCN4CCOCC4)cc3C2=O)c1
795 | CN(C)c1cc(N2CCCC(NC(=O)Cc3ccccc3)C2)ncn1 (stereo not given)
763 | CC(=O)c1sc(NC(=O)C2COc3ccccc3O2)nc1C (stereo not given)
687 | CC1=C(c2ccc(C)cc2)S(=O)(=O)N=C1N1CCCN(C(=O)c2cccnc2)CC1
643 | O=C(N[C@H]1C[C@@H]2C[C@H]1N(C(=O)c1ccccc1Cl)C2)c1cccs1
907 | Cn1c(=O)c(N2CCC(NC(=O)Nc3ccc(Cl)cc3)CC2)nc2cccnc21

RP-LC retention time [s] | Compound
832 | Cc1noc(C)c1CNC(=O)C(C)Oc1cccc(Cl)c1 (stereo not given)
888 | Cc1nn(-c2ccc(F)cc2)c(C)c1S(=O)(=O)N1CCC(C(=O)NC(C)(C)C)CC1
804 | CC1(C(=O)NCc2ccc(F)cc2)CCN(C(=O)Nc2ccc(F)cc2)CC1
672 | CC(=O)N1CCc2cc(-c3ccc(C(=O)NCCCN4CCCC4=O)cc3)ccc21
902 | CCOC(=O)C1=C(C)NC2=C(C(=O)c3ccccc32)C1c1cccc(OC)c1OC (stereo not given)
738 | CN1CCc2ccccc2Cc2[nH]c3ccccc3c2CC1
611 | Cc1ccn2cc(-c3cccc(S(=O)(=O)N4CCCC4)c3)nc2c1
787 | Cc1nc(-c2ccc(N3CCN(C(=O)Nc4ccc(F)cc4)CC3)cc2)no1
813 | CN(CC1(C)CCOCC1)C(=O)c1c(F)cccc1Cl
609 | CCC(C(=O)NCCCN1CCOCC1)n1c2ccccc2c2cnn(C)c(=O)c21 (stereo not given)
615 | CN(C)C(=O)c1ccc2c(c1)N(CC(=O)NCCN1CCCCCC1)C(=O)C1CCCCN21 (stereo not given)
1020 | Cc1ccc(S(=O)(=O)NC(C)c2nc(-c3ccc(-c4csc(C)n4)cc3)no2)cc1 (stereo not given)
695 | CCCNC(=O)C1CCCN(c2nc3ncn(CC(=O)NCc4ccc(F)cc4)c(=O)c3s2)C1 (stereo not given)
798 | Cc1ccc(C)c(CNc2nc3ccncc3n(Cc3ccccc3)c2=O)c1
680 | Cn1c(N2CCN(C(=O)Cc3ccc(F)cc3)CC2)cc(=O)n(C)c1=O
718 | CCc1noc([C@@H]2CC(F)(F)CN2C(=O)Cn2cc(C)cn2)n1
733 | Cc1nc(N2CCN(c3ccccn3)CC2)c2c(C)c(C(=O)Nc3cc(F)ccc3C)sc2n1
924 | CCc1nc(-c2ccc(-c3noc(CNC(=O)c4ccco4)n3)cc2)cs1
756 | O=C(Cc1ccc(NC(=O)c2cnc3ccccc3n2)cc1)NCC(F)(F)F
638 | COC(=O)c1cc2c(=O)n(Cc3ccccn3)ccc2nc1C
610 | COC(=O)CSCC(=O)Nc1nccs1
1070 | Cc1cc(C)c(S(=O)(=O)N2CCC(C(=O)NCCc3csc(-c4ccccc4)n3)CC2)cc1C

RP-LC retention time [s] | Compound
902 | O=C(CSc1ncnc2c1oc1ccccc12)Nc1nc2ccccc2s1
992 | Fc1ccc(-c2nnc(Cc3nc(-c4ccccc4)no3)o2)cc1
653 | CCCN1CC(Oc2ccc(-c3noc(C4CC4)n3)cc2)C1
803 | Cc1csc(-c2cc(S(=O)(=O)N3CCCC3)cn2CC(=O)N2CCCC2)n1
1090 | CCc1cc(C(=O)Nc2ccccc2OC)nc2ccnn12
1090 | CCCCN1C(=O)C(C)(C(=O)Nc2ccc(C)cc2C)Oc2cccnc21 (stereo not given)
828 | CN(CC(=O)N1CCN(c2ccc(Cl)cc2)CC1)S(=O)(=O)c1ccc2c(c1)CCCC(=O)N2
890 | CC(C)CC(=O)Nc1ccc(OCc2cc(C(=O)NC3CCCC3)no2)cc1
670 | CC(=O)NCc1csc(C2CCCN(C(=O)COc3ccccc3)C2)n1 (stereo not given)
1170 | CCc1cc(-c2csc(S(=O)(=O)N(Cc3ccccc3)C(C)C)c2)on1
827 | O=C(Cc1nnc(-c2ccc3ncccc3c2)o1)Nc1ccc(C(F)(F)F)cc1
669 | CCc1ccc(CNC(=O)c2cc(-c3ccncc3)cn2C)cc1
625 | COc1ccc(Cl)c2c(=O)c3c([nH]c12)CCN(CC(=O)NCc1ccccc1F)C3
663 | CCOC(=O)CCNC(=O)NCc1nnnn1-c1ccc(C)c(C)c1
645 | COCCCNC(=O)c1ncoc1-c1ccccc1C(=O)N1CCCC1
639 | COc1ccc(-c2nc(C)cc(C)c2CNS(=O)(=O)c2ccccc2)cc1
642 | CCOc1ccc(NC(=O)N2CCC(n3cnc4cccnc43)CC2)cc1
784 | CNC(=O)Nc1ccc(OC)c(NC(=O)NC(=O)c2cc(F)c(F)cc2Cl)c1
728 | COCCNC(=O)CN1C(=O)C2CCCCN2c2ccc(S(=O)(=O)N3CCCC3)cc21 (stereo not given)
752 | COCCNC(=O)CN1c2ccccc2NC2=C(C(=O)CC(C)(C)C2)C1c1ccc(F)cc1 (stereo not given)
834 | O=C(Cc1ccc(Cl)cc1)Nc1ccc(N2CCN(C3CCCC3)C2=O)nc1

Compound | RP-LC retention time [s]
O=C(O)CCCC(=O)N1C[C@H]2C[C@@H](C1)c1cccc(=O)n1C2 | 564
O=C(NCc1ccc2c(c1)OCO2)c1c(O)c2cccnc2n(Cc2ccccc2)c1=O | 1290
Fc1cccc(F)c1C1SCc2nc3ccccc3n21 (stereo not given) | 797

Reference: the METLIN SMRT retention time set (Domingo-Almenara et al. 2019)
